Data taken from US11168078B2, “Sulfoximine, sulfonimidamide, sulfondiimine and diimidosulfonamide compounds as inhibitors of indoleamine 2,3-dioxygenase” (Shanghai Fochon Pharmaceutical Co., Ltd., priority 2016, dated 2021).

Molecular target: T1, IDO (Homo sapiens, UniProt P14902)
T1 construct: endogenous in cells; host or cells: HeLa cells stimulated with recombinant human interferon-gamma
Assay: IDO Cell-Based NEK Green Assay (NFK Green, N-formyl kynurenine level)
Conditions: Hela cells, 1 mM L-Tryptophan, 100 ng/mL recombinant human interferon-gamma, 2 days, NFK Green fluorescence
Protocol: IDO Cell-Based NEK Green Assay
Materials: RPMI 1640 (phenol red free) (Invitrogen Cat. No. 11835030), Fetal Bovine Serum (Invitrogen Cat. No. 10099141), Penicillin-Streptomycin (Invitrogen Gibco Cat. No. 15140-122), Cellular assay kit (NTRC, Cat. No. NTRC-GSCell-1K), DMSO (Sigma, Cat. No. D2650), 384 wells_compound plate (Greiner, Cat. No. 781280), 384 wells_assay plate (Greiner, Cat. No. 781091)
The concentrations of test compounds varied from 5 μM to 0.76 nM with 3-fold dilution, 10 points, in duplicates.
Hela cells were seeded at 8,000 cells per well with RPMI/phenol red free media containing 10% FBS in a 384-well tissue culture plate. Mixture of compounds and 1 mM L-Tryptophan were added to cells; and then the recombinant human interferon-gamma was added at the final concentration of 100 ng/mL to activate IDO signaling. The cells were incubated for 2 days in 37° C. incubator with 5% CO2. After that, NFK Green was used to detect the N-formyl kynurenine level by following the commercial kit instruction. The fluorescent signal was measured by Envision plate Reader (excitation, 400/25; emission, 510/20). Curves are fit by XLFIT5 as % inhibition vs. log [compound concentration] using a 4 parameters logistic model 205.
Select compounds prepared as described above were assayed according to the biological procedures described herein.

T1 sequence (P14902 whole entry): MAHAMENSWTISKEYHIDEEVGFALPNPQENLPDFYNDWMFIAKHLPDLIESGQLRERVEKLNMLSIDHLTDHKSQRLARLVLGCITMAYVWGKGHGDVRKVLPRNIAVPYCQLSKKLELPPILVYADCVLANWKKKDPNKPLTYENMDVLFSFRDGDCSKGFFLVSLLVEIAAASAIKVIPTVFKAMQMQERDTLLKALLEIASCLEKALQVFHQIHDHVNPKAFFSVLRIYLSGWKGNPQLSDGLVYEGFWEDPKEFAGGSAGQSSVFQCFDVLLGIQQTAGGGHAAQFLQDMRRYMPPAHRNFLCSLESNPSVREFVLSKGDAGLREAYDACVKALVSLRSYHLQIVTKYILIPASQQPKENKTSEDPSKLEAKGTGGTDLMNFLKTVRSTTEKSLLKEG

IC50	Compound
238 nM	C#Cc1cc(N/C(=N\O)c2nonc2NCCS(C)(=N)=N)ccc1F [Example 43, (Z)-4-({2-[diimino(methyl)-λ^6-sulfanyl]ethyl}amino)-N-(3-ethynyl-4-fluorophenyl)-N′-hydroxy-1,2,5-oxadiazole-3-carboximidamide]
23.9 nM	CCS(=O)(=NC)NCCNc1nonc1/C(=N/O)Nc1ccc(F)c(Br)c1 (stereo not drawn) [Example 33, (Z)-N-(3-bromo-4-fluorophenyl)-N′-hydroxy-4-((2-(N′-methylethylsulfonoamidimidamido)ethyl)amino)-1,2,5-oxadiazole-3-carboximidamide]
46.7 nM	CS(=N)(=N)CCCNc1nonc1/C(=N/O)Nc1ccc(F)c(Br)c1 [Example 36, (Z)-N-(3-bromo-4-fluorophenyl)-4-({3-[diimino(methyl)-λ^6-sulfanyl]propyl}amino)-N′-hydroxy-1,2,5-oxadiazole-3-carboximidamide]
20.9 nM	COCCS(=N)(=N)CCNc1nonc1/C(=N/O)Nc1ccc(F)c(Br)c1 [Example 41, (Z)-N-(3-bromo-4-fluorophenyl)-4-({2-[diimino(2-methoxyethyl)-λ^6-sulfanyl]ethyl}amino)-N′-hydroxy-1,2,5-oxadiazole-3-carboximidamide]
13.3 nM	CC(C)S(=N)(=N)CCNc1nonc1/C(=N/O)Nc1ccc(F)c(Br)c1 [Example 38, (Z)-N-(3-bromo-4-fluorophenyl)-4-({2-[diimino(propan-2-yl)-λ^6-sulfanyl]ethyl}amino)-N′-hydroxy-1,2,5-oxadiazole-3-carboximidamide]
20.5 nM	CCS(=N)(=N)CCCNc1nonc1/C(=N/O)Nc1ccc(F)c(Br)c1 [Example 37, (Z)-N-(3-bromo-4-fluorophenyl)-4-{[3-(ethyldiimino-λ^6-sulfanyl)propyl]amino}-N′-hydroxy-1,2,5-oxadiazole-3-carboximidamide]
17.5 nM	CCS(=N)(=O)NCCNc1nonc1/C(=N/O)Nc1ccc(F)c(Cl)c1 (stereo not drawn) [Example 25, (Z)-N-(3-chloro-4-fluorophenyl)-4-((2-(ethylsulfonoamidimidamido)ethyl)amino)-N′-hydroxy-1,2,5-oxadiazole-3-carboximidamide]
196 nM	CCS(=N)(=N)CCNc1nonc1/C(=N/O)Nc1ccc(F)c(C#N)c1 [Example 42, (Z)-N-(3-cyano-4-fluorophenyl)-4-{[2-(ethyldiimino-λ^6-sulfanyl)ethyl]amino}-N′-hydroxy-1,2,5-oxadiazole-3-carboximidamide]
112 nM	CS(C)(=O)=NCCCNc1nonc1/C(=N/O)Nc1ccc(F)c(Cl)c1 [Example 31, (Z)-N-(3-chloro-4-fluorophenyl)-4-((3-((dimethyl(oxo)-λ^6-sulfanylidene)amino)propyl)amino)-N′-hydroxy-1,2,5-oxadiazole-3-carboximidamide]
33.2 nM	CCS(=O)(=NC)NCCNc1nonc1/C(=N/O)Nc1ccc(F)c(Cl)c1 (stereo not drawn) [Example 23, (Z)-N-(3-chloro-4-fluorophenyl)-N′-hydroxy-4-((2-(N′-methylethylsulfonoamidimidamido)ethyl)amino)-1,2,5-oxadiazole-3-carboximidamide]
16.5 nM	CCS(=N)(=O)NCCCNc1nonc1/C(=N/O)Nc1ccc(F)c(Cl)c1 (stereo not drawn) [Example 27, (Z)-N-(3-chloro-4-fluorophenyl)-4-[(3-ethanesulfonoimidamidopropyl)amino]-N′-hydroxy-1,2,5-oxadiazole-3-carboximidamide]
63.6 nM	CS(C)(=O)=NCCCNc1nonc1/C(=N/O)Nc1ccc(F)c(Br)c1 [Example 30, (Z)-N-(3-bromo-4-fluorophenyl)-4-((3-((dimethyl(oxo)-λ^6-sulfanylidene)amino)propyl)amino)-N′-hydroxy-1,2,5-oxadiazole-3-carboximidamide]
12.2 nM	CS(=N)(=N)CCNc1nonc1/C(=N/O)Nc1ccc(F)c(Br)c1 [Example 20, (Z)—N-(3-bromo-4-fluorophenyl)-4-({2-[diimino(methyl)-λ^6-sulfanyl]ethyl}amino)-N′-hydroxy-1,2,5-oxadiazole-3-carboximidamide]
52.3 nM	N=S(=N)(CCNc1nonc1/C(=N/O)Nc1ccc(F)c(Br)c1)C1CC1 [Example 39, (Z)-N-(3-bromo-4-fluorophenyl)-4-{[2-(cyclopropyldiimino-λ^6-sulfanyl)ethyl]amino}-N′-hydroxy-1,2,5-oxadiazole-3-carboximidamide]
73.5 nM	C#Cc1cc(N/C(=N\O)c2nonc2NCCS(=N)(=N)CC)ccc1F [Example 44, (Z)-4-{[2-(ethyldiimino-λ^6-sulfanyl)ethyl]amino}-N-(3-ethynyl-4-fluorophenyl)-N′-hydroxy-1,2,5-oxadiazole-3-carboximidamide]
26.5 nM	C#Cc1cc(N/C(=N\O)c2nonc2NCCN=S(C)(C)=O)ccc1F [Example 29, (Z)-4-((2-((dimethyl(oxo)-λ^6-sulfanylidene)amino)ethyl)amino)-N-(3-ethynyl-4-fluoro-phenyl)-N′-hydroxy-1,2,5-oxadiazole-3-carboximidamide]
10.6 nM	CN=S(=O)(CCCNc1nonc1/C(=N/O)Nc1ccc(F)c(Br)c1)NC (stereo not drawn) [Example 17, (Z)—N-(3-bromo-4-fluorophenyl)-4-((3-(N,N′-dimethylsulfamidimidoyl)propyl)amino)-N′-hydroxy-1,2,5-oxadiazole-3-carboximidamide]
13.3 nM	(Z)—N-(3-ethynyl-4-fluorophenyl)-N′-hydroxy-4-((2-(methylsulfonoamidimidamido)ethyl)amino)-1,2,5-oxadiazole-3-carboximidamide [Example 19]
9.7 nM	CCS(=N)(=N)CCNc1nonc1/C(=N/O)Nc1ccc(F)c(Br)c1 [Example 34, (Z)-N-(3-bromo-4-fluorophenyl)-4-{[2-(ethyldiimino-λ^6-sulfanyl)ethyl]amino}-N′-hydroxy-1,2,5-oxadiazole-3-carboximidamide]
8.2 nM	CCS(=N)(=O)NCCCNc1nonc1/C(=N/O)Nc1ccc(F)c(Br)c1 (stereo not drawn) [Example 24, (Z)-N-(3-bromo-4-fluorophenyl)-4-[(3-ethanesulfonoimidamidopropyl)amino]-N′-hydroxy-1,2,5-oxadiazole-3-carboximidamide]
27.5 nM	CN=S(C)(=O)NCCNc1nonc1/C(=N/O)Nc1ccc(F)c(Cl)c1 (stereo not drawn) [Example 22, (Z)-N-(3-chloro-4-fluorophenyl)-N′-hydroxy-4-((2-(N′-methylmethylsulfonoamidimidamido)ethyl)amino)-1,2,5-oxadiazole-3-carboximidamide]
33.7 nM	CS(=N)(=N)CCNc1nonc1/C(=N/O)Nc1ccc(F)c(Cl)c1 [Example 35, (Z)-N-(3-chloro-4-fluorophenyl)-4-({2-[diimino(methyl)-λ^6-sulfanyl]ethyl}amino)-N′-hydroxy-1,2,5-oxadiazole-3-carboximidamide]
39.1 nM	N=S(=N)(CCO)CCNc1nonc1/C(=N/O)Nc1ccc(F)c(Br)c1 [Example 40, (Z)-N-(3-bromo-4-fluorophenyl)-N′-hydroxy-4-({2-[(2-hydroxyethyl)diimino-λ^6-sulfanyl]ethyl}amino)-1,2,5-oxadiazole-3-carboximidamide]
14 nM	CS(=N)(=O)NCCCNc1nonc1/C(=N/O)Nc1ccc(F)c(Cl)c1 (stereo not drawn) [Example 26, (Z)-N-(3-chloro-4-fluorophenyl)-N′-hydroxy-4-[(3-methanesulfonoimidamidopropyl)amino]-1,2,5-oxadiazole-3-carboximidamide]
